{"source": "ChEMBL document CHEMBL1201862", "about": "“PubChem BioAssay data set” (2004)", "key": {"[1]": {"assay": "HepG2 cell cytotoxicity, dose response, cytotoxicity control for Shn3 inhibitor project, CellTiter-Glo, cherry-picked (AID 624134)", "assay_type": "functional, cell-based"}, "[2]": {"assay": "control 3'UTR Renilla luciferase suppression, dose response, counter-screen for Shn3 inhibitor project, cell-based, Clone20-Shn3RL, cherry-picked (AID 624133)", "assay_type": "functional"}, "Beta-galactosidase [3]": {"target": "T1, Beta-galactosidase (Escherichia coli, UniProt Q8VNN2)", "T1 sequence (Q8VNN2 whole entry)": "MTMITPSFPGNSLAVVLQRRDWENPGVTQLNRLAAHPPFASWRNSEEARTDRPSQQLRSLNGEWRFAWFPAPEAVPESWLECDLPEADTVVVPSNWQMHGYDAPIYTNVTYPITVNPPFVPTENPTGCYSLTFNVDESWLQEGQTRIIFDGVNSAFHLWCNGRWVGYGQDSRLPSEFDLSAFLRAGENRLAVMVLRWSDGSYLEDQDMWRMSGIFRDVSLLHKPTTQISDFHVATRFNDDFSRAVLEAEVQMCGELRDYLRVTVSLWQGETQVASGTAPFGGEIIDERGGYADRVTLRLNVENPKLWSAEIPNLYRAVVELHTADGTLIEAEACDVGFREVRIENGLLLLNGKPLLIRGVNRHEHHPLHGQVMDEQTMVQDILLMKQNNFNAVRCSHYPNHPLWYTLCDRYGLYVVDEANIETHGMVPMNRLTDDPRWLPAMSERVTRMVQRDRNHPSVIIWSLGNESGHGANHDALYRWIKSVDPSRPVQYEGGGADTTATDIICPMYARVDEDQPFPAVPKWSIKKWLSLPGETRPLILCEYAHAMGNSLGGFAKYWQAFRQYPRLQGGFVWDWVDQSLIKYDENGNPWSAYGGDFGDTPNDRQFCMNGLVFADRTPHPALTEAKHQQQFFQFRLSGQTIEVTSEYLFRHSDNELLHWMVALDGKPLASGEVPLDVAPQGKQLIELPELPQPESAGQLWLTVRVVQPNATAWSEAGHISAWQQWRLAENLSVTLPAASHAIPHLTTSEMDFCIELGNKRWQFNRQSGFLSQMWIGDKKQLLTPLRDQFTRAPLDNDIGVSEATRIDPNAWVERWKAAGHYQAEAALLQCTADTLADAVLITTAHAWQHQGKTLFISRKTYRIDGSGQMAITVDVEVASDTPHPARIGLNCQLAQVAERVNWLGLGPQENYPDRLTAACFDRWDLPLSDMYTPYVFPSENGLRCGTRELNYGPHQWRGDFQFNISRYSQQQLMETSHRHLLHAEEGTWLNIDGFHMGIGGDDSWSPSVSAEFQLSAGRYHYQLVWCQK", "assay": "Dose response counterscreen for EBI2 assay utilizing the enzyme, b-galactosidase.", "assay_type": "functional"}, "[4]": {"assay": "Shn3 3'UTR reporter inhibitors, dose response, cell-based, Clone20 osteoblasts, firefly luciferase, cherry-picked (AID 624132)", "assay_type": "functional"}, "Streptococcus": {"system": "Streptococcus", "assay": "Group A Streptococcus viability loss, dose response, counter-screen for streptokinase expression inhibitor project, luminescence, BacTiterGlo (AID 1915);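 note: potency for reduction of bacterial viability or growth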", "assay_type": "functional, organism-based"}, "Streptokinase A": {"target": "T2, Streptokinase A (Streptococcus pyogenes serotype M1, UniProt P10520)", "T2 sequence (P10520 whole entry)": "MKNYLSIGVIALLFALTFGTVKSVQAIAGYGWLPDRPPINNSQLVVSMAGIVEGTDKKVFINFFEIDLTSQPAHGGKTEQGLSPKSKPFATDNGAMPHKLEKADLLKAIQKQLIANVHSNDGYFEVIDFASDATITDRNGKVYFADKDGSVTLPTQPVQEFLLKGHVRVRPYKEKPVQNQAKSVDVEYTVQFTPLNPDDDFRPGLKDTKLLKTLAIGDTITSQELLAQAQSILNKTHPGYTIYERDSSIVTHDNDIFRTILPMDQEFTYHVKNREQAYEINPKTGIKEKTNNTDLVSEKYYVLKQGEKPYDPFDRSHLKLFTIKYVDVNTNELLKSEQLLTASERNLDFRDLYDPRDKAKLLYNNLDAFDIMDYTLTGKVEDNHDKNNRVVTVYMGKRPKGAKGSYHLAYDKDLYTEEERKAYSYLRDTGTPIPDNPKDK", "assay": "S. pyogenes streptokinase expression inhibitors, potency, dose response, plasminogen activation absorbance, OD405 (AID 1914);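 note: secreted streptokinase activity via plasminogen activation per viability signal from cell pellet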", "assay_type": "functional, Streptococcus pyogenes M1 GAS"}, "[5]": {"assay": "inhibitors of intracellular T. cruzi replication, confirmation, NIH3T3 host cells, beta-gal luminescence (AID 2044);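 note: intracellular parasites grown in NIH/3T3 mouse fibroblasts as host cells; luminescent beta-galactosidase reporter signal from transgenic T. cruzi replicating inside host cells; inhibitors lower the luminescence signal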", "assay_type": "functional, cell-based"}, "[6]": {"assay": "cytotoxicity in HEK-293T cells, dose response, cytotoxicity control for BCR NF-kB inhibitor project, luminescence, B-cell screen hits (AID 489021);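 note: cells exposed to compound for about 14 hours before viability readout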", "assay_type": "functional, cell-based"}, "[7]": {"system": "Streptococcus sp. 'group A'", "assay": "growth inhibition of control SK(-) GAS strain, dose response, counter-screen for streptokinase expression inhibitor project, luminescence, kanamycin, BacTiterGlo, confirmation (AID 1900)", "assay_type": "functional, organism-based"}, "Coagulation factor XII": {"target": "T3, Coagulation factor XII (Homo sapiens, UniProt P00748)", "T3 sequence (P00748 whole entry)": "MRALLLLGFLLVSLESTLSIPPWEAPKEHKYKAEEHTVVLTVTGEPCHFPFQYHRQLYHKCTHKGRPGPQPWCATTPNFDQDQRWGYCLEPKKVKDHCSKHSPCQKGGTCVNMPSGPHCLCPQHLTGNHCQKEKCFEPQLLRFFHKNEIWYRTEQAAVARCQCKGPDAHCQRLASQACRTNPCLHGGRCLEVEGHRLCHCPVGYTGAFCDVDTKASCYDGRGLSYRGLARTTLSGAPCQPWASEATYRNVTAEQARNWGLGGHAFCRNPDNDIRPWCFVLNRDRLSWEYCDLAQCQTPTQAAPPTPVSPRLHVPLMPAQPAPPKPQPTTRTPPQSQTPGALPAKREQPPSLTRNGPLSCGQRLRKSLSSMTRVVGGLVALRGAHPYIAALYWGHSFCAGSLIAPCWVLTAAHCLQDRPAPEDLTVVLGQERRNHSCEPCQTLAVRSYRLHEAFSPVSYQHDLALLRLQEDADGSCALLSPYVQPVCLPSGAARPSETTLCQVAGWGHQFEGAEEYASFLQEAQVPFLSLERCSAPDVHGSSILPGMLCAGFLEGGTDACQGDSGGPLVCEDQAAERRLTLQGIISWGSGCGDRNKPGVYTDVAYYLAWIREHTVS", "assay_type": "functional"}, "[8]": {"target": "T4, Polyadenylate-binding protein 1 (Homo sapiens, UniProt P11940)", "T4 sequence (P11940 whole entry)": "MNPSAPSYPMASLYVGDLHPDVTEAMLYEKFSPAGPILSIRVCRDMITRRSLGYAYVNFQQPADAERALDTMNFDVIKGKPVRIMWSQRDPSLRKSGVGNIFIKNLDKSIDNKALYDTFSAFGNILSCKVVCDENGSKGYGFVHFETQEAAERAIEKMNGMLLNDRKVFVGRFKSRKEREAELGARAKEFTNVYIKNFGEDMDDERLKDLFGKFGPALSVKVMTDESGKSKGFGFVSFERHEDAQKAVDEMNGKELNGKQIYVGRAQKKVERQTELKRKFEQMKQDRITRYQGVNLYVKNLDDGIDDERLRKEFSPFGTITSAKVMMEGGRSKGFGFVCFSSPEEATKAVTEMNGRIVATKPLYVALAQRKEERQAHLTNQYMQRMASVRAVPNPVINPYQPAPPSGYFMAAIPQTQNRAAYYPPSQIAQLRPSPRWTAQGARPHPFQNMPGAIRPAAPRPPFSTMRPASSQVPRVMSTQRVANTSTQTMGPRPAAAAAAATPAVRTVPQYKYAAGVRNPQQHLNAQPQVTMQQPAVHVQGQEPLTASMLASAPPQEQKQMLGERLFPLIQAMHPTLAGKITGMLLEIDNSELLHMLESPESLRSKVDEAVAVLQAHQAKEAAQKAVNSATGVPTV", "assay": "PABP1 MLLE–PAM2 binding inhibitor potency, dose response, biochemical, fluorescence polarization, FITC-PAM2 peptide (AID 602259)", "assay_type": "functional", "details": "read-out: IC50_Mean"}, "[9]": {"assay": "C. albicans growth with fluconazole, confirmation, fluorescence, retest (AID 2467)", "assay_type": "functional, cell-based"}, "[10]": {"target": "T4, Polyadenylate-binding protein 1", "assay": "PABP1 MLLE–PAM2 interaction inhibitors, dose response, miRNA deadenylation inhibitor project, biochemical, fluorescence polarization, Cy5-PAM2 peptide, secondary (AID 602260)", "assay_type": "functional", "details": "read-out: IC50_Mean"}, "[11]": {"target": "T5, Type-1 angiotensin II receptor (Homo sapiens, UniProt P30556)", "T5 sequence (P30556 whole entry)": "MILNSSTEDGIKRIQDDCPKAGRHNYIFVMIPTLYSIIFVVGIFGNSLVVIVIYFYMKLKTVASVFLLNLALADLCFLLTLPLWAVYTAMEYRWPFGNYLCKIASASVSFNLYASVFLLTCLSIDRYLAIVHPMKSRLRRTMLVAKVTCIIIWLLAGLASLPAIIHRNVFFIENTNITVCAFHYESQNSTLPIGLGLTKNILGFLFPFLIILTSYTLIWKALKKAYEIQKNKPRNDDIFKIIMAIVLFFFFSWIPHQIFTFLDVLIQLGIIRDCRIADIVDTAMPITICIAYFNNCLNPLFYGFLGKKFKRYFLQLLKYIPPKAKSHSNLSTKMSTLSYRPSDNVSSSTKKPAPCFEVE", "assay": "AT1 receptor antagonists, dose response, selectivity assay for APJ receptor antagonist project, cell-based, uHTS hits (AID 463214);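 note: antagonist potency against angiotensin II stimulated AT1 response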", "assay_type": "functional"}, "[12]": {"assay": "NIH-3T3 fibroblast cytotoxicity, dose response, cytotoxicity control, cell-based, fluorescence, Alamar Blue, secondary assay (AID 2327);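 note: NIH-3T3 mouse fibroblasts cultured with fluconazole at 8 µg/mL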", "assay_type": "functional"}, "Beta-galactosidase [13]": {"target": "T1, Beta-galactosidase", "assay": "PubChem AID 485352", "assay_type": "functional"}, "Vero [14]": {"system": "Vero", "assay": "cells", "assay_type": "functional, cell-based", "details": "Chlorocebus sabaeus"}, "Vero [15]": {"system": "Vero", "assay": "cells", "assay_type": "functional", "details": "Chlorocebus sabaeus"}}, "note": "Activity calls are given as the source filed them."}
{"smiles": "Cc1nc2ccccc2c2oc(C(=O)N3CCN(C4CCCCC4)CC3)cc12", "values": [{"measurement": "AC50", "setting": "[1]", "result": "68.8 µM (active)"}, {"measurement": "AC50", "setting": "[2]", "result": "3.44 µM (active)"}, {"measurement": "IC50", "setting": "Beta-galactosidase [3]", "result": "> 80 µM (inactive)"}, {"measurement": "AC50", "setting": "[4]", "result": "7.02 µM (active)"}]}
{"smiles": "Cc1ccc(OCC(=O)N2CCN(S(=O)(=O)c3ccc4c(c3)OCCO4)CC2)c(C)c1", "values": [{"measurement": "IC50", "setting": "Beta-galactosidase [3]", "result": "> 80 µM (inactive)"}]}
{"smiles": "Cc1ccc(Nc2nc(N/N=C\\c3ccc4c(c3)OCO4)nc(N3CCOCC3)n2)cc1", "values": [{"measurement": "EC50", "setting": "Streptococcus", "result": "> 150 µM (not active)"}, {"measurement": "EC50", "setting": "Streptokinase A", "result": "111 µM (active)"}, {"measurement": "EC50", "setting": "[5]", "result": "0.393 µM (active)"}, {"measurement": "IC50", "setting": "[6]", "result": "63.2 µM (inactive)"}, {"measurement": "EC50", "setting": "[7]", "result": "21.8 µM (active)"}]}
{"smiles": "CCOC(=O)c1c(O)c2cc(Cl)ccc2n(CC)c1=O", "values": [{"measurement": "IC50", "setting": "Coagulation factor XII", "result": "> 50 µM (inactive)"}]}
{"smiles": "O=C(NNc1ccc(Cl)cc1)c1sccc1Cl", "values": [{"measurement": "IC50", "setting": "[8]", "result": "> 66 µM (inactive)"}, {"measurement": "EC50", "setting": "[9]", "result": "2.04 µM (active)"}, {"measurement": "IC50", "setting": "[10]", "result": "> 66 µM (inactive)"}, {"measurement": "IC50", "setting": "[11]", "result": "12.4 µM (active)"}, {"measurement": "EC50", "setting": "[12]", "result": "3.77 µM (active)"}, {"measurement": "EC50", "setting": "Beta-galactosidase [13]", "result": "> 40 µM (inactive)"}]}
{"smiles": "CCOC(=O)c1c(SCCN2CCCCC2)n(-c2ccccc2)c(=S)n(-c2ccccc2)c1=O", "values": [{"measurement": "IC50", "setting": "Vero [14]", "result": "20.1 µM (active)"}, {"measurement": "CC50", "setting": "Vero [15]", "result": "> 25 µM (active)"}]}
{"smiles": "CCOC(=O)C(C(=O)NCc1cccc(OC)c1)c1ncc(C(F)(F)F)cc1Cl", "note": "(centres undefined)", "values": [{"measurement": "IC50", "setting": "Coagulation factor XII", "result": "> 50 µM (inactive)"}]}
{"smiles": "Cc1ccc(-c2[nH]c(C(=O)NCC3CCCO3)cc3c4ccccc4nc2-3)cc1", "note": "(centres undefined)", "values": [{"measurement": "IC50", "setting": "[6]", "result": "> 80 µM (inactive)"}]}
{"smiles": "COc1cccc(NC(=O)Nc2cccnc2)c1", "values": [{"measurement": "IC50", "setting": "Coagulation factor XII", "result": "> 50 µM (inactive)"}]}
{"smiles": "O=C(NNC(=O)C12CC3CC(CC(Br)(C3)C1)C2)c1ccccc1F", "values": [{"measurement": "IC50", "setting": "[6]", "result": "> 80 µM (inactive)"}]}
{"smiles": "O=C1C2CCCN2C(c2ccccc2)N1c1ccc(Cl)cc1", "note": "(centres undefined)", "values": [{"measurement": "IC50", "setting": "Vero [14]", "result": "> 25 µM (active)"}]}
